Assay results: patent US20230233555A1 (AbbVie Inc., priority 2022, published 2023)

Columns and labels:
[1] = test system: patients with moderately to severely active rheumatoid arthritis, naive to MTX; experiment: Trial RA-I (NCT02706873); type: in vivo, human; conditions: for CRP / Number of swollen joints (0-66) / Number of tender joints (0-68) / Pain / Patient global assessment / Physician global assessment: mean; for Pain / Patient global assessment / Physician global assessment: visual analog scale 0 = best, 100 = worst
Procedure: The primary endpoint was the proportion of patients who achieved an ACR50 response at Week 12. Key secondary endpoints included disease activity score (DAS28-CRP) ≤3.2 at Week 12, DAS28-CRP <2.6 at Week 24, change from baseline in HAQ-DI at Week 12, and change from baseline in van der Heijde-modified total Sharp Score (mTSS) at Week 24.
Inhibition of progression of structural joint damage was assessed using the modified Total Sharp Score (mTSS) and its components, the erosion score and joint space narrowing score, at Week 26 in Trial RA-IV and Week 24 in Trial RA-I. The proportion of patients with no radiographic progression (mTSS change from baseline […]) was also assessed.

[2] = test system: patients with rheumatoid arthritis; experiment: Rheumatoid arthritis Phase 3 trials, integrated datasets (RA-I to RA-V)
From the text: Exposure adjusted incidence rates were adjusted by trial for all the adverse events reported in this section.
Patients 18 years of age and older were eligible to participate. The presence of at least 6 tender and 6 swollen joints and evidence of systemic inflammation based on elevation of hsCRP was required at baseline.

[3] = test system: patients with moderately to severely active rheumatoid arthritis, inadequate response to MTX; experiment: Trial RA-II (NCT02706951); type: in vivo, human; conditions: for CRP / Number of swollen joints (0-66) / Number of tender joints (0-68) / Pain / Patient global assessment / Physician global assessment: Trial RA-II, MTX-IR, monotherapy, mean; for Pain / Patient global assessment / Physician global assessment: visual analog scale 0 = best, 100 = worst; for CRP, mean / Number of swollen joints (0-66), mean / Number of tender joints (0-68), mean / Pain (visual analog scale 0-100), mean / Patient global assessment (visual analog scale 0-100), mean / Physician global assessment (visual analog scale 0-100), mean: RA-II
From the text: The primary endpoint was the proportion of patients who achieved an ACR20 response at Week 14. Key secondary endpoints included DAS28-CRP ≤3.2, DAS28-CRP <2.6, and change from baseline in HAQ-DI at Week 14.

[4] = test system: CYP1A2, CYP3A, CYP2D6, CYP2C9, CYP2C19, CYP2B6; experiment: Drug interaction studies: effect of upadacitinib on co-administered drugs / in vivo markers of CYP activity (cocktail study); conditions: for AUC Ratio (90% CI) of co-administered drug, with upadacitinib vs alone / Cmax Ratio (90% CI) of co-administered drug, with upadacitinib vs alone: extended-release
[5] = Baseline, Trial RA-I, MTX-naïve, monotherapy, RINVOQ 15 mg or MTX
[6] = RA-I MTX-naive monotherapy, Week 12, RINVOQ 15 mg or MTX
[7] = RA-I MTX-naive monotherapy, Week 24, RINVOQ 15 mg or MTX
[8] = RA-I, Baseline, RINVOQ 15 mg or MTX
[9] = RA-I, Week 12, RINVOQ 15 mg or MTX
[10] = Week 12 (primary efficacy timepoint), Trial RA-I, MTX-naïve, monotherapy, RINVOQ 15 mg or MTX
[11] = MTX-controlled RA-I and RA-II, 12/14 weeks, 15 mg monotherapy (or MTX monotherapy arm)
[12] = MTX-controlled trials, up to 12/14 weeks, 15 mg (or MTX arm)
[13] = RA-II MTX-IR monotherapy, Week 14, RINVOQ 15 mg or MTX
[14] = Week 14 (primary efficacy timepoint), RINVOQ 15 mg or MTX

CN(Cc1cnc2nc(N)nc(N)c2n1)c1ccc(C(=O)N[C@@H](CCC(=O)O)C(=O)O)cc1 [MTX, methotrexate]
mTSS, Mean (SD) [1, 5]: 13.3 (31) | CRP [1, 5]: 21.2 mg/L | Number of swollen joints (0-66) [1, 5]: 17 | Number of tender joints (0-68) [1, 5]: 26 | Pain [1, 5]: 66 | Patient global assessment [1, 5]: 66 | Physician global assessment [1, 5]: 69 | ACR20 response, patients [1, 6]: 54% | ACR50 response, patients [1, 6]: 28% | ACR70 response, patients [1, 6]: 14% | DAS28-CRP <2.6, patients (proportion of responders) [1, 6]: 14% | ACR20 response, patients [1, 7]: 59% | ACR50 response, patients [1, 7]: 33% | ACR70 response, patients [1, 7]: 18% | DAS28-CRP <2.6, patients [1, 7]: 18% | mTSS, Mean (SD) ([1]; RA-I monotherapy, Baseline, RINVOQ 15 mg or MTX): 13.3 (31) | mTSS, mean change from baseline (SD) ([1]; RA-I monotherapy, Week 24, RINVOQ 15 mg or MTX): 0.67 (2.8) | Venous thrombosis, number of patients ([1]; RA-I through Week 24, 15 mg (or MTX arm)): 1 patients | CRP, mean [1, 8]: 21.2 mg/L | Number of swollen joints (0-66), mean [1, 8]: 17 | Number of tender joints (0-68), mean [1, 8]: 26 | Pain (visual analog scale 0-100), mean [1, 8]: 66 | Patient global assessment (visual analog scale 0-100), mean [1, 8]: 66 | Physician global assessment (visual analog scale 0-100), mean [1, 8]: 69 | CRP, mean [1, 9]: 10.9 mg/L | Number of swollen joints (0-66), mean [1, 9]: 6 | Number of tender joints (0-68), mean [1, 9]: 13 | Of DAS28-CRP <2.6 responders, proportion with 0 active joints [1, 9]: 51% | Of DAS28-CRP <2.6 responders, proportion with 1 active joint [1, 9]: 35% | Of DAS28-CRP <2.6 responders, proportion with 2 active joints [1, 9]: 9% | Of DAS28-CRP <2.6 responders, proportion with 3 or more active joints [1, 9]: 5% | Pain (visual analog scale 0-100), mean [1, 9]: 41 | Patient global assessment (visual analog scale 0-100), mean [1, 9]: 42 | Physician global assessment (visual analog scale 0-100), mean [1, 9]: 32 | Patients with no radiographic progression ([1]; RA-I, Week 24, RINVOQ 15 mg monotherapy or MTX monotherapy): 78% | CRP [1, 10]: 10.9 mg/L | Number of swollen joints (0-66) [1, 10]: 6 | Number of tender joints (0-68) [1, 10]: 13 | Pain [1, 10]: 41 | Patient global assessment [1, 10]: 42 | Physician global assessment [1, 10]: 32 | mTSS, mean change from baseline (SD) ([1]; Week 24, Trial RA-I, MTX-naïve, monotherapy, RINVOQ 15 mg or MTX): 0.67 (2.8) | Infections, number of patients [2, 11]: 127 patients | Infections, rate [2, 11]: 119.5 per 100 patient-years | Malignancies excluding NMSC, number of patients [2, 11]: 1 patients | Malignancies excluding NMSC, rate [2, 11]: 0.8 per 100 patient-years | Opportunistic infections (excluding tuberculosis), number of patients [2, 11]: 1 patients | Serious infections, number of patients [2, 11]: 2 patients | Serious infections, rate [2, 11]: 1.6 per 100 patient-years | Opportunistic infections (excluding tuberculosis), rate ([2]; MTX-controlled RA-I and RA-II, 12/14 weeks, MTX monotherapy arm): 0.8 per 100 patient-years | ALT elevations ≥3×ULN in at least one measurement, patients [2, 12]: 1.9% | AST elevations ≥3×ULN in at least one measurement, patients [2, 12]: 0.9% | Active tuberculosis cases ([2]; RA MTX-controlled period, 15 mg monotherapy (or MTX monotherapy arm)): no active cases | Gastrointestinal perforations ([2]; RA MTX-controlled trials, 12/14 weeks, 15 mg (or MTX arm)): no cases | CRP ([3]; Baseline, RINVOQ 15 mg or MTX): 14.5 mg/L | Number of swollen joints (0-66) ([3]; Baseline, RINVOQ 15 mg or MTX): 17 | Number of tender joints (0-68) ([3]; Baseline, RINVOQ 15 mg or MTX): 25 | Pain ([3]; Baseline, RINVOQ 15 mg or MTX): 63 | Patient global assessment ([3]; Baseline, RINVOQ 15 mg or MTX): 60 | Physician global assessment ([3]; Baseline, RINVOQ 15 mg or MTX): 62 | ACR20 response, patients [3, 13]: 41% | ACR50 response, patients [3, 13]: 15% | ACR70 response, patients [3, 13]: 3% | DAS28-CRP <2.6, patients [3, 13]: 8% | Venous thrombosis, number of patients ([3]; RA-II through Week 14, 15 mg monotherapy (or MTX monotherapy arm)): 0 patients | CRP, mean ([3]; Baseline, RINVOQ 15 mg or MTX): 14.5 mg/L | Number of swollen joints (0-66), mean ([3]; Baseline, RINVOQ 15 mg or MTX): 17 | Number of tender joints (0-68), mean ([3]; Baseline, RINVOQ 15 mg or MTX): 25 | Pain (visual analog scale 0-100), mean ([3]; Baseline, RINVOQ 15 mg or MTX): 63 | Patient global assessment (visual analog scale 0-100), mean ([3]; Baseline, RINVOQ 15 mg or MTX): 60 | Physician global assessment (visual analog scale 0-100), mean ([3]; Baseline, RINVOQ 15 mg or MTX): 62 | CRP, mean ([3]; Week 14, RINVOQ 15 mg or MTX): 12.8 mg/L | Number of swollen joints (0-66), mean ([3]; Week 14, RINVOQ 15 mg or MTX): 9 | Number of tender joints (0-68), mean ([3]; Week 14, RINVOQ 15 mg or MTX): 15 | Pain (visual analog scale 0-100), mean ([3]; Week 14, RINVOQ 15 mg or MTX): 49 | Patient global assessment (visual analog scale 0-100), mean ([3]; Week 14, RINVOQ 15 mg or MTX): 48 | Physician global assessment (visual analog scale 0-100), mean ([3]; Week 14, RINVOQ 15 mg or MTX): 37 | CRP [3, 14]: 12.8 mg/L | Number of swollen joints (0-66) [3, 14]: 9 | Number of tender joints (0-68) [3, 14]: 15 | Pain [3, 14]: 49 | Patient global assessment [3, 14]: 48 | Physician global assessment [3, 14]: 37

Cc1ncc2n1-c1ccc(Cl)cc1C(c1ccccc1F)=NC2 [Midazolam]
Decrease in exposure of oral midazolam (sensitive CYP3A4 substrate) ([4]; repeated doses of upadacitinib 30 mg): 26% | AUC Ratio (90% CI) of co-administered drug, with upadacitinib vs alone ([4]; upadacitinib 30 mg QD): 0.74 (0.68-0.80) | Cmax Ratio (90% CI) of co-administered drug, with upadacitinib vs alone ([4]; upadacitinib 30 mg QD): 0.74 (0.68-0.80) | AUC Ratio (90% CI) of co-administered drug, with upadacitinib vs alone ([4]; upadacitinib 45 mg QD): 0.76 (0.69-0.83) | Cmax Ratio (90% CI) of co-administered drug, with upadacitinib vs alone ([4]; upadacitinib 45 mg QD): 0.75 (0.69-0.83)

COc1ccc2c(c1)[C@]13CCCC[C@@H]1[C@H](C2)N(C)CC3 [Dextromethorphan]
AUC Ratio (90% CI) of co-administered drug, with upadacitinib vs alone ([4]; upadacitinib 30 mg QD): 1.07 (0.95-1.22) | Cmax Ratio (90% CI) of co-administered drug, with upadacitinib vs alone ([4]; upadacitinib 30 mg QD): 1.09 (0.98-1.21) | AUC Ratio (90% CI) of co-administered drug, with upadacitinib vs alone ([4]; upadacitinib 45 mg QD): 1.35 (1.18-1.54) | Cmax Ratio (90% CI) of co-administered drug, with upadacitinib vs alone ([4]; upadacitinib 45 mg QD): 1.30 (1.13-1.50)
